Our source for the melting point and CC50 values is patent US9890133B2 (priority 2011, dated 2018).

For orientation: melting point means the temperature, or range, at which the solid turns liquid.

Each structure is given as a SMILES string. Converted amounts (≈) assume the structure as drawn.

A short description of one data set: in vitro. Particulars: human.

As to `CC(C)c1ccc2c(c1)OC1(OC(=O)c3ccco3)c3ccccc3C(=O)C21O` (centres unmarked) [Example 36, 9b-Hydroxy-7-isopropyl-10-oxo-9b,10-dihydro-4bH-benzo[d]indeno[1,2-b]furan-4b-yl furane-2-carboxylatefurane-2-carboxylic acid], the melting point was in the range of 116 to 120 °C. The CC50 in “in vitro” (Picorana CC50) was determined as 9.34 µg/mL (≈ 23.9 µM).

In turn, `CC(=O)OC12Oc3cc(C)ccc3C1(OC(C)=O)C(=O)c1ccccc12` (centres unmarked) [Example 2, 7-Methyl-10-oxo-9b,10-dihydro-4bH-benzo[d]indeno[1,2-b]furane-4b,9b-diyl diacetate] registered a melting point of 167 to 169 °C. This compound displayed a CC50 in “in vitro” (Picorana CC50) greater than 50 µg/mL.

Turning to `O=C1c2ccccc2C2(O)Oc3c(ccc(Cl)c3Cl)C12O` (centres unmarked) [Example 8, 6,7-Dichloro-4b,9b-dihydroxy-4bH-benzo[d]indeno[1,2-b]furan-10(9bH)-one], the melting point is 142 to 150 °C. The compound further displayed a CC50 in “in vitro” (Picorana CC50) of 44.1 µg/mL (≈ 136 µM).

`COc1ccc2c(c1)C1(O)C(=O)c3ccccc3C1(O)O2` (centres unmarked) [Example 12, 4b,9b-Dihydroxy-8-methoxy-4bH-benzo[d]indeno[1,2-b]furan-10(9bH)-one] registered a melting point of 186 to 189 °C. Besides, the CC50 in “in vitro” (Picorana CC50) is greater than 50 µg/mL.

`CC(C)c1ccc2c(c1)O[C@@]1(O)c3cccc(O)c3C(=O)[C@@]21O` [Example 43, 1,4b,9b-Trihydroxy-7-isopropyl-4bH-benzo[d]indeno[1,2-b]furan-10(9bH)-one] gave a melting point of 205 to 207 °C. The CC50 in the data set “in vitro” stood at 33.2 µg/mL (≈ 106 µM).

In turn, `O=C1c2ccccc2C2(O)Oc3c(ccc4ccccc34)C12O` (centres unmarked) [Example 16, 6b,11b-Dihydroxy-6bH-indeno[1,2-b]naphtho[2,1-d]furan-7(11 bH)-one] gave a melting point of 216 to 218 °C. The CC50 in the data set “in vitro” (Picorana CC50) is 7.82 µg/mL (≈ 25.7 µM).

`CCC(C)(C)c1ccc2c(c1)C1(O)C(=O)c3ccccc3C1(O)O2` (centres unmarked) [Example 23, 4b,9b-Dihydroxy-8-tert-pentyl-4bH-benzo[d]indeno[1,2-b]furan-10(9bH)-one] yielded a melting point of 175 to 176 °C. The same compound registered a CC50 in the data set “in vitro” (Picorana CC50) of 9.3 µg/mL (≈ 28.7 µM).

On to `COc1ccc2c(c1)OC1(O)c3ccccc3C(=O)C21O` (centres unmarked) [Example 7, 4b,9b-Dihydroxy-7-methoxy-4bH-benzo[d]indeno[1,2-b]furan-10(9bH)-one], for which the melting point lay in the range of 98 to 100 °C. The compound further registered a CC50 in “in vitro” (Picorana CC50) greater than 50 µg/mL.

Turning to `CC(C)(C)c1cc(C(C)(C)C)c2c(c1)C1(O)C(=O)c3ccccc3C1(O)O2` (centres unmarked) [Example 24, 6,8-di-tert-Butyl-4b,9b-dihydroxy-4bH-benzo[d]indeno[1,2-b]furan-10(9bH)-one], the melting point was 200 to 203 °C. Moreover, the CC50 in the data set “in vitro” (Picorana CC50) stood at 8.8 µg/mL (≈ 24 µM).

For the compound `CCOC(=O)Cc1cc(OC)c2c(c1)C1(O)C(=O)c3ccccc3C1(O)O2` (centres unmarked) [Example 3, Ethyl 2-(4b,9b-dihydroxy-6-methoxy-10-oxo-9b,10-dihydro-4bH-benzo[d]indeno[1,2-b]furane-8-yl)acetate], the melting point fell in the range of 133 to 136 °C. For the same compound, the CC50 in “in vitro” (Picorana CC50) was greater than 50 µg/mL.

`CC(=O)OC12Oc3c(C(C)(C)C)cc(C(C)(C)C)cc3C1(OC(C)=O)C(=O)c1ccccc12` (centres unmarked) [Example 25, 6,8-di-tert-Butyl-10-oxo-9b,10-dihydro-4bH-benzo[d]indeno[1,2-b]furane-4b,9b-diyl diacetate] yielded a melting point of 242 to 247 °C. The CC50 in the data set “in vitro” (Picorana CC50) was greater than 50 µg/mL.

Compound `CCOC(=O)OC12Oc3cc(C(C)C)ccc3C1(OC(=O)OCC)C(=O)c1ccccc12` (centres unmarked) [Example 37, Diethyl 7-isopropyl-10-oxo-9b,10-dihydro-4bH-benzo[d]indeno[1,2-b]furane-4b,9b-diyl dicarbonate] displayed a melting point of 150 to 153 °C. Further, the CC50 in the data set “in vitro” (Picorana CC50) worked out at 9.68 µg/mL (≈ 22 µM).

With `CCc1ccc2c(c1)C1(O)C(=O)c3ccccc3C1(O)O2` (centres unmarked) [Example 18, 8-Ethyl-4b,9b-dihydroxy-4bH-benzo[d]indeno[1,2-b]furan-10(9bH)-one], the melting point was in the range of 157 to 159 °C. This compound also gave a CC50 in the data set “in vitro” (Picorana CC50) of 37.5 µg/mL (≈ 133 µM).
